# Experimental data published in patent US9645128B2, “Substituted imidazo[1,2-A]pyrazines for measuring a transcription activity” (JNC CORPORATION, priority 2009, dated 2017).
# Tests used:
# [1] = target: T1, recombinant apoaequorin (Aequorea victoria, UniProt P07164); assay: Luminescence patterns and half decay time of semi-synthetic aequorins; type: biochemical; set-up: purchased Chisso Corporation; conditions: for Half decay time sec.: semi-synthetic aequorin, time to reach half of the maximum luminescence intensity
# Procedure: The dilution was dispensed into a 96-well microplate (Nunc #236108) in 5 μl/well. […] The luminescence patterns for 60 seconds were measured to determine the half decay time of luminescence (time period to reach the half of the maximum luminescence intensity).
# [2] = target: T1, recombinant apoaequorin; assay: Production of semi-synthetic aequorins and measurement of luminescence activity (Imax, luminescence capacity); conditions: regeneration 0.5 to 18 hours at 4° C.
# Procedure: In order to confirm the regeneration time and regeneration efficiency from apoaequorin to the semi-synthetic aequorin, the luminescence activity was assayed at the respective points of the regeneration process (at the respective points of 0.5, 1, 1.5, 2, 3 and 18 hours from the start of regeneration).
# Specifically, the luminescence activity described above was measured as follows. The luminescence reaction was started by adding 100 μl of 50 mM Tris-HCl (pH 7.6) containing 50 mM calcium chloride solution to 2 μl of a solution of the semi-synthetic aequorin at each regeneration process. The luminescence activity was measured for 10 seconds with a luminometer Luminescencer-PSN AB2200 (manufactured by Atto Co., Ltd.). The measured values were represented as the maximum intensity (Imax) of luminescence. The emission for 60 seconds was integrated, which was made a luminescence capacity.
# [3] = target: T2, Renilla luciferase (Renilla reniformis, UniProt P27652); assay: Substrate specificity, luminescence activity and emission spectra of Renilla luciferase; type: biochemical; conditions: for Maximum emission wavelength λmax (nm) / Luminescence activity Imax (%) / Luminescence capacity 10 secs. (%): Renilla luciferase; for Maximum emission wavelength λmax (nm): 22 to 25° C.; for Luminescence activity Imax (%) / Luminescence capacity 10 secs. (%): coelenterazine = 100.0; for Ability to act as substrate for Renilla luciferase: TABLE 4
# T2 construct: made in house
# T2 sequence (P27652 1-311): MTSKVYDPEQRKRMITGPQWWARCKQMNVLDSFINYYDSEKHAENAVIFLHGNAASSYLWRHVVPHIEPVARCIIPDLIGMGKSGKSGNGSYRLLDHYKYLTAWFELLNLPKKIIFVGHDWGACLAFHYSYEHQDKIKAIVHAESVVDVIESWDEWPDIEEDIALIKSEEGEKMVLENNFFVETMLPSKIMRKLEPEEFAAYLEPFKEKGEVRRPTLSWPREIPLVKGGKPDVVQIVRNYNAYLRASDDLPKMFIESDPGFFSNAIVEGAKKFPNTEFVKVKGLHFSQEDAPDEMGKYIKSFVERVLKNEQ
# From the text: Res. Commun. (1997) 233: 349-353, which was provided for use.
# [4] = target: T1, recombinant apoaequorin; assay: Emission spectra of semi-synthetic aequorins by addition of calcium ions; conditions: for Emission spectra of semi-synthetic aequorins compared with known analogs (FIG. 3): compared to h-CTZ and i-CTZ; for Maximum emission wavelength λmax (nm): semi-synthetic aequorin, 22 to 25° C.
# Procedure: In a quartz cell with an optical path length of 10 mm, 1 ml of 50 mM Tris-HCl (pH 7.6) containing 1 mM EDTA and 100 μl (100 μg protein) of a solution of the regenerated semi-synthetic aequorin were charged and they were mixed. Subsequently, 100 μl of 50 mM Tris-HCl (pH 7.6) containing 0.1 ml of 10 mM calcium chloride solution was added to the mixture to trigger the luminescence reaction. The spectra were measured on a spectrofluorimeter (FP-6500, manufactured by JASCO Corporation) with the excitation source turned off. The measurement conditions used were as follows: band width, 20 nm; response, 0.5 second and scan speed, 2000 nm/min at 22 to 25° C.
# [5] = system: Gaussia luciferase; assay: Substrate specificity, luminescence activity and emission spectra of Gaussia luciferase; conditions: for Luminescence activity Imax (%) / Luminescence capacity 10 secs. (%): Gaussia luciferase, coelenterazine = 100.0
# Procedure: The luminescence activity was measured for 10 seconds using a luminometer Luminescencer-PSN AB2200 (manufactured by Atto Co., Ltd.). The luminescence activity was measured 3 times and expressed as the maximum intensity (Imax) of luminescence.
# [6] = target: T3, 19 kDa protein of Oplophorus luciferase (Oplophorus gracilirostris, UniProt Q9GV45); assay: Substrate specificity, luminescence activity and emission spectra of the 19 kDa protein of Oplophorus luciferase; type: biochemical, Oplophorus gracilorostris; conditions: for Maximum emission wavelength λmax (nm) / Luminescence activity and/or capacity compared to known h-CTZ / Luminescence capacity 10 secs. (%) / Luminescence activity Imax (%): Oplophorus luciferase; for Maximum emission wavelength λmax (nm): 22 to 25° C.; for Luminescence activity and/or capacity compared to known h-CTZ / Quality as luminescence substrate for Oplophorus luciferase: TABLE 2; for Luminescence capacity 10 secs. (%): emission integrated for 10 seconds; for Luminescence capacity 10 secs. (%) / Luminescence activity Imax (%): coelenterazine = 100.0
# T3 construct: made in house
# [7] = target: T1, recombinant apoaequorin; assay: Calcium standard curve with semi-synthetic aequorins; type: biochemical; set-up: purchased Chisso Corporation; conditions: Imax versus 10^-3 M to 10^-8 M calcium
# Procedure: The dilution series was prepared by the serial process above to prepare standard calcium solution of 10^−3 M to 10^−8 M.
# The semi-synthetic aequorin obtained was concentrated using Amicon Ultra-4 (manufactured by Millipore, molecular weight cut off, 10.000).
# This semi-synthetic aequorin solution (2.5 mg/ml) was diluted with 20 mM Tris-HCl (pH 7.6) containing 0.1% BSA (manufactured by Sigma), 0.01 mM EDTA and 150 mM NaCl.
# The calcium standard solution prepared as described above was dispensed into a 96-well microplate (Nunc #236108) in 50 μl/well, and the semi-synthetic aequorin solution diluted was injected in […]. The luminescence intensity was measured for 60 seconds using a luminescence plate reader Centro LB960 (manufactured by Berthold) and expressed in terms of the maximum luminescence intensity (Imax). The luminescence intensity was measured for each semi-synthetic aequorin in the same fashion. Based on the maximum luminescence intensity (Imax) obtained, the calcium standard curve for each semi-synthetic aequorin was prepared.
# T1 sequence (P07164 other isoform, or with tags, fused parts or gaps with the stated changes): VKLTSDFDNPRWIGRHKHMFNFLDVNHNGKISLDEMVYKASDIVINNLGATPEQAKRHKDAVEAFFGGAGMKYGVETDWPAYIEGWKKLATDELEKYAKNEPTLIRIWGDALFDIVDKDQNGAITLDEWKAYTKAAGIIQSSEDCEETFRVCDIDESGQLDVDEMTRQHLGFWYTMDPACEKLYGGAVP
# T3 sequence (Q9GV45 28-196): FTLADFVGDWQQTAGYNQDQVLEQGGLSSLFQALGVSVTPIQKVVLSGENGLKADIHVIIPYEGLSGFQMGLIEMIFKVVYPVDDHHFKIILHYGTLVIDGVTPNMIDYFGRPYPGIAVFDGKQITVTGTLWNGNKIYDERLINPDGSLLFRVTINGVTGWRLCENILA
SMILES,Half decay time sec. [1],Ability to act as luminescence substrate for semi-synthetic aequorins (FIG. 1) [2],Maximum emission wavelength λmax (nm) [3],Luminescence activity Imax (%) [3],Luminescence capacity 10 secs. (%) [3],Ability to act as substrate for Renilla luciferase [3],Emission spectra of semi-synthetic aequorins compared with known analogs (FIG. 3) [4],Maximum emission wavelength λmax (nm) [4],Luminescence activity Imax (%) [5],Luminescence capacity 10 secs. (%) [5],Quality as luminescence substrate for Gaussia luciferase ([5]; TABLE 3),melting point,Maximum emission wavelength λmax (nm) [6],Luminescence activity and/or capacity compared to known h-CTZ [6],Luminescence capacity 10 secs. (%) [6],Luminescence activity Imax (%) [6],Quality as luminescence substrate for Oplophorus luciferase [6],Calcium standard curve with semi-synthetic aequorin (FIG. 4) [7],"Half decay time of luminescence compared with CTZ ([1]; semi-synthetic aequorin (FIG. 2, TABLE 1))"
"O=c1c(Cc2cccc(O)c2)nc2c(Cc3ccccc3)[nH]c(-c3ccc(O)cc3)cn1-2 [3iso-CTZ, 3-isocoelenterazine]",0.24 s,can be luminescence substrates for semi-synthetic aequorins,472.0 nm,25.7%,27.5%,can be substrates for Renilla luciferase,exhibit different emission spectra from those of known coelenterazine analogs,464.0 nm,14.3%,7.4%,effective luminescence substrates,160 to 162 °C (dec.),458.0 nm,high luminescence activity and/or luminescence capacity,71.8%,78.2%,relatively good luminescence substrates,calcium standard curves can be prepared,–
"O=c1c(Cc2ccc(C(F)(F)F)cc2)nc2c(Cc3ccccc3)[nH]c(-c3ccc(O)cc3)cn1-2 [cf3-CTZ, cf3-coelenterazine]",5.95 s,can be luminescence substrates for semi-synthetic aequorins,474.5 nm,0.8%,0.8%,–,exhibit different emission spectra from those of known coelenterazine analogs,473.5 nm,0.8%,0.7%,–,157 to 161 °C (dec.),450.5 nm,–,68.2%,49.5%,relatively good luminescence substrates,calcium standard curves can be prepared,longer than CTZ
"Cc1cccc(Cc2nc3c(Cc4ccccc4)[nH]c(-c4ccc(O)cc4)cn-3c2=O)c1 [3me-CTZ, 3me-coelenterazine]",0.51 s,can be luminescence substrates for semi-synthetic aequorins,471.5 nm,12.7%,13.1%,–,exhibit different emission spectra from those of known coelenterazine analogs,466.0 nm,2.6%,2.1%,–,142 to 145 °C (dec.),455.5 nm,high luminescence activity and/or luminescence capacity,122.8%,80.0%,relatively good luminescence substrates,calcium standard curves can be prepared,–
"COc1ccc(Cc2nc3c(Cc4ccccc4)[nH]c(-c4ccc(O)cc4)cn-3c2=O)cc1 [meo-CTZ, meo-coelenterazine]",1.63 s,can be luminescence substrates for semi-synthetic aequorins,472.5 nm,8.0%,8.6%,can be substrates for Renilla luciferase,exhibit different emission spectra from those of known coelenterazine analogs,469.0 nm,13.6%,15.5%,–,137 to 139 °C (dec.),454.5 nm,–,108.6%,68.1%,relatively good luminescence substrates,calcium standard curves can be prepared,–
